Activity calls are given as the source filed them. Rule as the data show it, for most assays here: actives have a measured Kd and inactives only a lower limit.

The target in experiment [1] is Mitogen-activated protein kinase 9 (Homo sapiens, UniProt P45984).
The target of experiment [2] is T1, Serine/threonine-protein kinase D2 (Homo sapiens, UniProt Q9BZL6).
T1 sequence (Q9BZL6 whole entry): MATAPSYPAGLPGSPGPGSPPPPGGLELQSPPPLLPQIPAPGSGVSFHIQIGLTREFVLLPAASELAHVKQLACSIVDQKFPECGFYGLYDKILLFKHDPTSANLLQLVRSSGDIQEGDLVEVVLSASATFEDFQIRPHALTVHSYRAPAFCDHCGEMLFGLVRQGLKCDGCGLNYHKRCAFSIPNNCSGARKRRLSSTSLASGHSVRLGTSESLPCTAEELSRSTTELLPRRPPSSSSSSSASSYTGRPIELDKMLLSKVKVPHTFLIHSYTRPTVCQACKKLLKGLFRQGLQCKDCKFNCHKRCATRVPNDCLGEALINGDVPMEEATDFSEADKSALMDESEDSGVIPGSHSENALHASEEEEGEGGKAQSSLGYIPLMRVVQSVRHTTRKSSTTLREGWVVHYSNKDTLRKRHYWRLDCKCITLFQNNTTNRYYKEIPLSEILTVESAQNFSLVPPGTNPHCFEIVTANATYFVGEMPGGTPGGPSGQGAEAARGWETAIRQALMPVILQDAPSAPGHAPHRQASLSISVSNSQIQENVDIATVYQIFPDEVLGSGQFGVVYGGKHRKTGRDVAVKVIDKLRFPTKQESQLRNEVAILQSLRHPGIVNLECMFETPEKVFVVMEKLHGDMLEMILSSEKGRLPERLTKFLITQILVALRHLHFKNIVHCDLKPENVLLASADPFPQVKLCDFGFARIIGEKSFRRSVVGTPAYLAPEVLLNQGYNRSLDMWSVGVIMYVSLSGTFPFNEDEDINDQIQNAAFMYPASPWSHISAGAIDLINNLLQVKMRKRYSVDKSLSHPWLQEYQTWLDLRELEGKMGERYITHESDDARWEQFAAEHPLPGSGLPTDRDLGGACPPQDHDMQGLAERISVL

For another experiment, the target named is T2, Septin-9 (Homo sapiens, UniProt Q9UHD8).
T2 sequence (Q9UHD8 whole entry): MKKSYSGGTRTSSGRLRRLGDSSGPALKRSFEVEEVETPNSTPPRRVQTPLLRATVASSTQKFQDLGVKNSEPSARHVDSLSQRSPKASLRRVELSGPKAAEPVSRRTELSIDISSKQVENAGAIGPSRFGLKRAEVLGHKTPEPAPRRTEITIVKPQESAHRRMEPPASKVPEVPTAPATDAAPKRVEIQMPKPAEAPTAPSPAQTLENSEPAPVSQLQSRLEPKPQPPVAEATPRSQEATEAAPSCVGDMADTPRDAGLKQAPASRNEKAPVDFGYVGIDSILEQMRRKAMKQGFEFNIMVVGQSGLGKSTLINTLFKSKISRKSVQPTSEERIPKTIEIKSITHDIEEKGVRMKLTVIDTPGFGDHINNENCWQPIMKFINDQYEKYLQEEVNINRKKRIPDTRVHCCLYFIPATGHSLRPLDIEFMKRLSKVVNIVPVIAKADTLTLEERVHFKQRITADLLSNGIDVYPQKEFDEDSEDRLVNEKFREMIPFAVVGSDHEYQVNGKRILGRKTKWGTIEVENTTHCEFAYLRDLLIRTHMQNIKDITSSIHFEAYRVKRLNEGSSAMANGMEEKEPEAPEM

Another experiment addresses Activated CDC42 kinase 1 (Homo sapiens, UniProt Q07912).
The target of experiment [3] is T3, Non-receptor tyrosine-protein kinase TNK1 (Homo sapiens, UniProt Q13470).
T3 sequence (Q13470 whole entry): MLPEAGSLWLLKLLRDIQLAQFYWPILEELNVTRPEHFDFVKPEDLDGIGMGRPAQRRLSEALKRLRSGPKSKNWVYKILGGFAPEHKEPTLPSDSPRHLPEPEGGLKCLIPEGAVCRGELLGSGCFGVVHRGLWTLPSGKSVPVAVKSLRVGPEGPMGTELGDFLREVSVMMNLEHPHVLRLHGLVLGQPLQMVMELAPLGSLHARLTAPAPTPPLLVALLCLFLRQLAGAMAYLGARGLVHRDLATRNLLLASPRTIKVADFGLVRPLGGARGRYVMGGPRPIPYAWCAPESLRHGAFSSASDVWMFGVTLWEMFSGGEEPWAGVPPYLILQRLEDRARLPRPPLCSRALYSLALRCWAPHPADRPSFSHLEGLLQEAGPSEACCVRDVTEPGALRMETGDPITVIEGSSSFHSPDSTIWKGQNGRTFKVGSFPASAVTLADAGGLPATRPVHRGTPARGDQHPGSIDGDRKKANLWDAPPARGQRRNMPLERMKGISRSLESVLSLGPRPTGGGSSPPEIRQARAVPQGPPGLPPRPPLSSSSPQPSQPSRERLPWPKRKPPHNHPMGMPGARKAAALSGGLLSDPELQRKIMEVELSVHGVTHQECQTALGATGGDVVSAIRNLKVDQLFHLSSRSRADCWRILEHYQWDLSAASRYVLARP
Also: in the data inactive means no Kd found up to 30 µM.

Sequence of Mitogen-activated protein kinase 9 (P45984 whole entry): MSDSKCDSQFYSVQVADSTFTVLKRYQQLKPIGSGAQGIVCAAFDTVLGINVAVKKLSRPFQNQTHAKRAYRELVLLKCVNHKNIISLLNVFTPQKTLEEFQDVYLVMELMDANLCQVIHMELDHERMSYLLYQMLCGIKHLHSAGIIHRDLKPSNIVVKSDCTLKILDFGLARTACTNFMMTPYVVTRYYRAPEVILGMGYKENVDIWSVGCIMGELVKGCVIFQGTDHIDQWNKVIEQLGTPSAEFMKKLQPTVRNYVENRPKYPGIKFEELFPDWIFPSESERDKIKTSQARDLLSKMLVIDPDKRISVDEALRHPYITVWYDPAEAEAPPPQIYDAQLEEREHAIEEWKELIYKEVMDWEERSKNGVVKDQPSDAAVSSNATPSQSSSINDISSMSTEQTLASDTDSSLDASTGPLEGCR
Sequence of Activated CDC42 kinase 1 (Q07912 whole entry): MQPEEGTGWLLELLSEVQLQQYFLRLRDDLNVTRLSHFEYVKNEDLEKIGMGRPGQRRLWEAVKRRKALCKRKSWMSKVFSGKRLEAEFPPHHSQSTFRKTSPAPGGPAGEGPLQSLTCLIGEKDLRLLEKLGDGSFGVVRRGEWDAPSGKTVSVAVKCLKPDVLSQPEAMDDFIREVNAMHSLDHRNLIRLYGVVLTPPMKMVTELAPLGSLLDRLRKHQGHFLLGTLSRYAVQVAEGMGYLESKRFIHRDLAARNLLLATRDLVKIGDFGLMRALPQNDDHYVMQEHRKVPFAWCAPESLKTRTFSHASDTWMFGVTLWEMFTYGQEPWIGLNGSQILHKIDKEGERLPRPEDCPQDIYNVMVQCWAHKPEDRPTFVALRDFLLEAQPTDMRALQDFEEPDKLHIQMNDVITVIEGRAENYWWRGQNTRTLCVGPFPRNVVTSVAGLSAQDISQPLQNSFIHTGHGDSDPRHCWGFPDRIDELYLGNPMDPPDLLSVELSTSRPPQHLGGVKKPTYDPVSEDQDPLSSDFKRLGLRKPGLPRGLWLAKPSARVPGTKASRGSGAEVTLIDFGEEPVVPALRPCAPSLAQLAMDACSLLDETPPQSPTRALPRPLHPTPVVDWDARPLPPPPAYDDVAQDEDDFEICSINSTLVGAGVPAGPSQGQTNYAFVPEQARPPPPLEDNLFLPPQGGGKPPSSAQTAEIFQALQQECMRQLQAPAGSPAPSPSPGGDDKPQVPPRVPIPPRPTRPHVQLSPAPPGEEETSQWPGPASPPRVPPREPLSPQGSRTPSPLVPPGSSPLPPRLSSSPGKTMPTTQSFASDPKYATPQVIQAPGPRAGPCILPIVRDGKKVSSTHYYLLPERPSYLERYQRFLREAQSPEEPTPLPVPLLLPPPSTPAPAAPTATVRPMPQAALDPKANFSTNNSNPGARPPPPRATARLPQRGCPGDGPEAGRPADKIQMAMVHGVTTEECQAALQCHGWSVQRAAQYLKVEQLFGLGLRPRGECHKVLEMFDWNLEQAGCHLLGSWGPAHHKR

For orientation: Kd means the constant that tells how readily two partners part at equilibrium. Turning to `C1=C/COCc2cc(ccc2OCCN2CCCC2)Nc2nccc(n2)-c2cccc(c2)COC/1` [PACRITINIB], the Kd in experiment [1] is > 30 µM (inactive); in experiment [2] it was > 30 µM (inactive); on Septin-9 it was > 30 µM (inactive); at Activated CDC42 kinase 1, 9.33 µM (active); in experiment [3], 0.888 µM (active).
With `Cc1ccc(S(=O)(=O)Nc2nc3ccccc3nc2Nc2ccc3nsnc3c2)cc1`, the Kd (in experiment [1]; in experiment [2]; on Septin-9; at Activated CDC42 kinase 1; in experiment [3]) was > 30 µM (inactive) throughout.
With `Cn1cc(-c2ccc(F)c(C(F)(F)F)c2)nc1C1CCN(c2ncnc3[nH]ncc23)CC1` [LY-2584702], the Kd (in experiment [1]; in experiment [2]; on Septin-9; on Activated CDC42 kinase 1; in experiment [3]) was > 30 µM (inactive) in each case.
Regarding `CN(C)C(=O)c1cc2cnc(Nc3ccc(N4CCNCC4)cn3)nc2n1C1CCCC1` [RIBOCICLIB], the Kd in experiment [1] is > 30 µM (inactive); in experiment [2], 25 µM (active); on Septin-9, > 30 µM (inactive); on Activated CDC42 kinase 1, > 30 µM (inactive); in experiment [3], > 30 µM (inactive).
`O=C(Nc1ccc(-c2ccnc(Nc3ccc(N4CCOCC4)cc3)n2)cc1)C1CCCN1` (stereo not given) [XL-019]: the Kd in experiment [1] was > 30 µM (inactive); in experiment [2], 66.9 µM (active); on Septin-9, > 30 µM (inactive); at Activated CDC42 kinase 1, > 30 µM (inactive); in experiment [3], > 30 µM (inactive).
Regarding `CNC(=O)CN1CCC(Oc2cc3c(Nc4cccc(Cl)c4F)ncnc3cc2OC)CC1` [SAPITINIB], the Kd (in experiment [1]; in experiment [2]; on Septin-9; at Activated CDC42 kinase 1; in experiment [3]) was > 30 µM (inactive) each time.
In the case of `Cc1cc([C@@H](C)Nc2ccccc2C(=O)O)c2nc(N3CCOCC3)cc(=O)n2c1` [AZD-6482], the Kd (in experiment [1]; in experiment [2]; at Septin-9; on Activated CDC42 kinase 1; in experiment [3]) was > 30 µM (inactive) each time.
`CCN1CCN(Cc2ccc(-c3cc4c(N[C@H](C)c5ccccc5)ncnc4[nH]3)cc2)CC1` [AEE-788]: the Kd in experiment [1] is > 30 µM (inactive); in experiment [2], > 30 µM (inactive); on Septin-9, > 30 µM (inactive); on Activated CDC42 kinase 1 it was 1.01 µM (active); in experiment [3] it was > 30 µM (inactive).
Regarding `CN1N=C(N)c2cn([C@@H]3O[C@H](COP(=O)(O)O)[C@@H](O)[C@H]3O)c3ncnc1c23` [TRICIRIBINE PHOSPHATE], the Kd (in experiment [1]; in experiment [2]; at Septin-9; on Activated CDC42 kinase 1; in experiment [3]) was > 30 µM (inactive) throughout.
Turning to `CC(=O)Nc1cccc(-n2c(=O)n(C3CC3)c(=O)c3c(Nc4ccc(I)cc4F)n(C)c(=O)c(C)c32)c1` [TRAMETINIB], the Kd (in experiment [1]; in experiment [2]; on Septin-9; at Activated CDC42 kinase 1; in experiment [3]) was > 30 µM (inactive) each time.
As for `COCCNCc1ccc(-c2cc3nccc(Oc4ccc(NC(=S)NC(=O)Cc5ccc(F)cc5)cc4F)c3s2)nc1` [GLESATINIB], the Kd was > 30 µM (inactive) in experiment [1]; > 30 µM (inactive) in experiment [2]; > 30 µM (inactive) on Septin-9; > 30 µM (inactive) at Activated CDC42 kinase 1; 1.49 µM (active) in experiment [3].
With `CNS(=O)(=O)Nc1nccc(Cc2c(C)c3ccc(Oc4ncccn4)cc3oc2=O)c1F` [AVUTOMETINIB], the Kd (in experiment [1]; in experiment [2]; at Septin-9; on Activated CDC42 kinase 1; in experiment [3]) was > 30 µM (inactive) in each case.

For the origin of these results see ChEMBL document CHEMBL3991601, “The target landscape of clinical kinase drugs” (Science, 2017).
